Results as given in US5332811A, “Etopside analogs” (priority 1991, dated 1994).
pIC50: −log10 of the molar value. Read-outs that look alike come from different tables or passages of the source.

Legend:
[1] = biological target: Human DNA topoisomerase II; assay: DNA topoisomerase II assay (P4 unknotting reaction); format: biochemical; conditions: for pIC50: read-out: Inhibition of DNA Topoisomerase II Activity ID50
Protocol: (§1) The compounds of the present invention were tested for their degree of inhibitory activity on human type II DNA topoisomerase, their effect on the formation of protein-linked DNA breakage, and their cytotoxicity. […] For a description of the assays used with respect to the compounds listed in Tables 1 to 5 see Thurston, L.S., Irie, H., Tani, S., Han, F. S., Liu, Z. C., Cheng, Y.C., and Lee, K. H., Antitumor Agents 78. Inhibition of Human DNA Topoisomerase II by Podophyllotoxin and Peltatin Analogues, J. Med. Chem. 29, 1547 (1986), and the references cited therein, herein incorporated by reference.
Human DNA topoisomerase II was isolated from peripheral blast cells of a patient with acute leukemia. The isolation procedure is described in Thurston, L., Imakura, Y., Haruna, M., Li, Z. C., Liu, S. Y., and Lee, K. H., J. Med. Chem., 31, […] (1988) and is a partial combination of the procedure described in Goto, T., Laiapia, P. and Wang, J., J. Biol. Chem., 259, 10422 (1984) and Halligan, B., Edwards, K., and Liu, L., J. Biol. Chem., 260, 2475 (1985) which are herein specifically incorporated by reference.
(§2) Drugs were dissolved in Me2 SO at a concentration of 20 mM as the stock solution and diluted before use with water to the desired concentration of each drug.
The P4 unknotting reaction was a modification of the procedure described by Hseih, T., J. Biol. Chem., 258, 8413 (1985), which is herein specifically incorporated by reference.
The reaction mixture (20 μL), which contained 50 mM HEPES, pH 7.0, 50 mM KCI, 100 mM NaCl, 0.1 mM EDTA, 10 mM MgCl2, 1.0 mM ATP, 50 μg/mL bovine serum albumin, 0.4 μg P4knotted DNA, and enzyme, was incubated with or without drugs.
The reaction mixture was incubated at 37° C. for 30 min and terminated by adding 5.0 μl of a stop solution (2% sodium dodecyl sulfate, 20% glycerol, 0.05% bromophenol blue). These samples were loaded onto a 1% agarose gel and electrophoresed at 55 V overnight with an electrophoresis buffer that contained 90 mM Tris-boric acid, pH 8.3, and 2.5 mM EDTA. At completion, the gel was stained in 0.5 μg/mL of ethidium bromide. Then a photograph was taken of the DNA bands visualized with fluorescence induced by a long-wavelength UV lamp. […]

[2] = system: covalent topoisomerase II-DNA complexes; assay: K-SDS precipitation assay for protein-DNA complexes in KB ATCC cells (cellular protein-DNA complex formation); format: cell-based; conditions: compared with etoposide
Protocol: as §1, with “cytotoxicity. The inhibitory activity for compounds of the present invention correlated with the ability of the compounds to cause DNA strand breakage.” for “cytotoxicity.”
as §2
The intracellular formation of covalent topoisomerase II-DNA complexes was quantitated using the potassium SDS precipitation assay, a procedure adapted from the method described in Rowe, T. C., Chen, G. L., Hsiang, Y. H., and Liu, L., Cancer Res., 46, 2021 (1986) (hereinafter Rowe et al.), which is herein specifically incorporated by reference. KB ATCC cells were prelabeled with 0.05 mCi/ml ^14 C-thymidine (specific activity 50.5 mCi/mmol) for 18 hr. A final concentration of 5×10^5 cells/sample were treated with 10 μM of the drugs at 37° C. for 1 hr and proceeded according to the procedure described by Rowe et al. to detect the protein linked DNA levels.

KB cells = assay: Cytotoxicity: 50% reduction in cell number of KB cells after three day incubation; format: cell-based; conditions: Homo sapiens, 72 h, read-out: Cytotoxicity ID50 KB
Protocol: as §1, with “cytotoxicity. The inhibitory activity for compounds of the present invention correlated with the ability of the compounds to cause DNA strand breakage.” for “cytotoxicity.”
in cell number after three day incubation.

[3] = Table 1, based on degree of inhibition at 25, 50, and 100 μM
[4] = Table 1, KB cells, three day incubation
[5] = Table 5, based on degree of inhibition at 10, 25, 50 and 100 μM
[6] = Table 5, KB cells, three day incubation
[7] = Table 4, based on degree of inhibition at 10, 25, 50 and 100 μM
[8] = Table 4, KB cells, three day incubation
[9] = Table 3, based on degree of inhibition at 20, 25, 50 and 100 μM
[10] = Table 3, KB cells, three day incubation
[11] = Table 2, based on degree of inhibition at 10, 25, 50 and 100 μM
[12] = Table 2, KB cells, three day incubation

COc1cc(C2c3cc4c(cc3C(NCc3ccc(C#N)cc3)C3COC(=O)C23)OCO4)cc(OC)c1O (stereo not drawn) [Example 11, 4'-O-Demethyl-4β-(4"-cyanobenzylamino)-4-desoxypodophyllotoxin] was tested, and the pIC50 [1, 3] was 4.60, the “inhibition of DNA topoisomerase activity relative to etoposide” value ([1]; compared with etoposide) was “over twice” and the “inhibition of cellular protein-DNA complex formation relative to etoposide” value [2] was “over twice”. The pIC50 (KB cells; [4]) was > 6.40.
In the case of CCOC(=O)c1ccc(N[C@@H]2c3cc4c(cc3[C@@H](C3=CC(=O)C(=O)C(OC)=C3)[C@H]3C(=O)OC[C@@H]32)OCO4)cc1 [Example 45, 3',4'-Didemethoxy-3',4'-dioxo-4β-[(4"-ethoxycarbonyl)anilino]-4-desoxypodophyllotoxin], the pIC50 [1, 5] was 4.60 and the pIC50 (KB cells; [6]) was 5.96.
COc1cc(C2c3cc4c(cc3C(NCc3cccc([N+](=O)[O-])c3)C3COC(=O)C23)OCO4)cc(OC)c1O (stereo not drawn) [Example 5, 4'-O-Demethyl-4β-(3"-nitrobenzylamino)-4-desoxypodophyllotoxin] was tested, and the pIC50 [1, 3] was 4.60 and the pIC50 (KB cells; [4]) was > 6.40.
COc1cc([C@@H]2c3cc4c(cc3[C@@H](NC(=O)c3ccc(C#N)cc3)[C@H]3COC(=O)[C@H]23)OCO4)cc(OC)c1O [Example 40, 4'-O-Demethyl-4β-[(4"-cyanobenzoyl)amino]-4-desoxypodophyllotoxin] showed a pIC50 [1, 7] of 4.60 and a pIC50 (KB cells; [8]) of 7.00.
COc1cc([C@@H]2c3cc4c(cc3[C@@H](NC(=O)c3ccc(C(C)=O)cc3)[C@H]3COC(=O)[C@H]23)OCO4)cc(OC)c1O [Example 38] was tested, and the pIC50 [1, 7] was 4.30 and the pIC50 (KB cells; [8]) was 6.00.
COc1cc([C@@H]2c3cc(O)c(O)cc3[C@@H](Nc3ccc(F)cc3)[C@H]3COC(=O)[C@H]23)cc(OC)c1O [Example 30, 6,7-O-Demethylene-4'-O-demethyl-4β-(fluoroanilino)-4-desoxypodophyllotoxin] was tested, and the pIC50 [1, 9] was 4.60 and the pIC50 (KB cells; [10]) was < 6.00.
Work on COc1cc(C2c3cc4c(cc3C(NCc3ccc([N+](=O)[O-])cc3)C3COC(=O)C23)OCO4)cc(OC)c1O (stereo not drawn) [Example 4, 4'-O-Demethyl-4β-(4"-nitrobenzylamino)-4-desoxypodophyllotoxin] yielded a pIC50 [1, 3] of 4.30 and a pIC50 (KB cells; [4]) of 6.40.
For COC1=CC([C@@H]2c3cc4c(cc3[C@@H](Nc3ccc(F)cc3)[C@H]3COC(=O)[C@@H]32)OCO4)=CC(=O)C1=O [Example 43, 3',4'-Didemethoxy-3',4'-dioxo-4β-(4"-fluoroanilino)-4-desoxypodophyllotoxin], the pIC50 [1, 5] was 4.60 and the pIC50 (KB cells; [6]) was < 5.68.
For COc1cc([C@@H]2c3cc(O)c(O)cc3[C@@H](Nc3ccccc3)[C@H]3COC(=O)[C@H]23)cc(OC)c1O [Example 26, 6,7-O-Demethylene-4'-O-demethyl-4β-anilino-4-desoxypophyllotoxin], the pIC50 [1, 9] was 4.60 and the pIC50 (KB cells; KB) was < 6.00.
COc1cc([C@@H]2c3cc4c(cc3[C@@H](NC(=O)c3ccccc3O)[C@H]3COC(=O)[C@H]23)OCO4)cc(OC)c1O [Example 35, 4'-O-Demethyl-4β-[(2-hydroxylbenzoyl)amino]-4-desoxypodophyllotoxin] was tested, and the pIC50 [1, 7] was 4.30 and the pIC50 (KB cells; [8]) was > 6.00.
Work on COc1cc([C@@H]2c3cc4c(cc3[C@@H](NC(=O)c3cccc(C#N)c3)[C@H]3COC(=O)[C@H]23)OCO4)cc(OC)c1O [Example 39, 4'-O-Demethyl-4β-[(3"-cyanobenzoyl)amino]-4-desoxypodophyllotoxin] yielded a pIC50 [1, 7] of 4.30 and a pIC50 (KB cells; [8]) of 6.00.
COc1cc2c(cc1OC)[C@@H](Nc1ccc(F)cc1)[C@H]1COC(=O)[C@@H]1[C@@H]2c1cc(OC)c(O)c(OC)c1 [Example 31, 6,7-O-demethylene-6,7-O-dimethyl-4'-O-demethyl-4β-(4"-fluoroanilino)-4-desoxypodophyllotoxin] gave a pIC50 [1, 9] of 4.30 and a pIC50 (KB cells; [10]) of 6.40.
COc1cc([C@@H]2c3cc4c(cc3[C@@H](NC(=O)c3ccc(F)cc3)[C@H]3COC(=O)[C@H]23)OCO4)cc(OC)c1O [Example 36, 4'-O-Demethyl-4β-[(4"-fluorobenzoyl)amino]-4-desoxypodophyllotoxin] was tested, and the pIC50 [1, 7] was 4.60 and the pIC50 (KB cells; [8]) was 6.47.
COc1cc([C@@H]2c3cc(O)c(O)cc3[C@@H](Nc3ccc([N+](=O)[O-])cc3)[C@H]3COC(=O)[C@H]23)cc(OC)c1O [Example 27, 6,7-O-Demethylene-4'-O-demethyl-4β-(4"-nitroanilino)-4-desoxypodophyllotoxin] was tested, and the pIC50 [1, 9] was 4.70 and the pIC50 (KB cells; [10]) was 6.12.
Compound CCOC(=O)c1ccc(N[C@@H]2c3cc(O)c(O)cc3[C@@H](c3cc(OC)c(O)c(OC)c3)[C@H]3C(=O)OC[C@@H]32)cc1 [Example 28, 6,7-O-Demethylene-4'-O-demethyl-4β-[4"-(ethoxycarbonyl)anilino]-4-desoxypodophyllotoxin] has a pIC50 [1, 9] of 4.70 and a pIC50 (KB cells; [10]) of 6.11.
With COc1cc([C@@H]2c3cc4c(cc3[C@@H](NC(=O)c3cccc(N)c3)[C@H]3COC(=O)[C@H]23)OCO4)cc(OC)c1O [Example 42, 4'-O-Demethyl-4β-[(3"-aminobenzoyl)amino]-4-desoxypodophyllotoxin] the pIC50 [1, 7] was 4.60 and the pIC50 (KB cells; [8]) was 6.38.
COc1cc([C@@H]2c3cc(O)c(O)cc3[C@@H](Nc3ccc(C#N)cc3)[C@H]3COC(=O)[C@H]23)cc(OC)c1O [Example 29, 6,7-O-Demethylene-4'-O-demethyl-4β-(cyanoanilino)-4-deoxypodophyllotoxin] gave a pIC50 [1, 9] of 4.70 and a pIC50 (KB cells; [10]) of 6.00.
For COc1cc(C2c3cc4c(cc3C(NCc3ccccc3N)C3COC(=O)C23)OCO4)cc(OC)c1O (stereo not shown) [Example 14], the pIC50 [1, 3] was 4.60 and the pIC50 (KB cells; [4]) was > 6.40.
COc1cc([C@@H]2c3cc4c(cc3[C@@H](NC(=O)c3cccc([N+](=O)[O-])c3)[C@H]3COC(=O)[C@H]23)OCO4)cc(OC)c1O [Example 41, 4'-O-Demethyl-4β-[(3"-nitrobenzoyl)amino]-4-desoxypodophyllotoxin] gave a pIC50 [1, 7] of 5.00 and a pIC50 (KB cells; [8]) of 6.48.
With COc1cc(C2c3cc4c(cc3C(Nc3ccc(C#N)cc3)C3COC(=O)C23)OCO4)cc(O)c1O (stereo not drawn) [Example 22, 3'.4'-O-Didemethyl-4β-(4"-cyanoanilino)-4-desoxypodophyllotoxin] the pIC50 [1, 11] was 5.00 and the pIC50 (KB cells; [12]) was 5.82.
With COc1cc(C2c3cc4c(cc3C(Nc3ccccc3)C3COC(=O)C23)OCO4)cc(O)c1O (stereo not drawn) [Example 17, 3',4'-O-Didemethyl-4β-anilino-4-desoxypodophyllotoxin] the pIC50 [1, 11] was 4.60 and the pIC50 (KB cells; [12]) was 5.77.
COC(=O)c1cccc(N[C@@H]2c3cc4c(cc3[C@@H](c3cc(O)c(O)c(OC)c3)[C@H]3C(=O)OC[C@@H]32)OCO4)c1 [Example 21, 3'.4'-O-Didemethyl-4β-(3"-methoxycarbonylanilino)-4-desoxypodophyllotoxin] was tested, and the pIC50 [1, 11] was 6.00 and the pIC50 (KB cells; [12]) was 5.72.
